Data on eleven compounds can be found in ChEMBL document CHEMBL1201862, “PubChem BioAssay data set” (2004).

Test systems include SN12C; HT-29; HOP-62; M14; HOP-92; COLO 205; NCI-H522; IGROV-1; MCF7; HCT-15; CAKI-1; RPMI-8226; T47D; SK-OV-3; SNB-75; NCI-H460; A498; RXF 393; UO-31; K562.
Common to all, as to experiment: DTP human tumour cell line panel, 48 h

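Following 48 hours of exposure in 96-well plates, responses at five concentrations were used to interpolate endpoints linearly. GI50 = concentration required for 50% inhibition of growth.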 The source made the active and inactive calls. Cut-off read from the data, not from the text of the source: active = GI50 up to about 1.1 µM and inactive = higher. Bounds are passed on as bounds.

The term GI50 denotes the concentration that inhibits growth by half. As to `CO[C@H]1[C@@H](O)[C@@H](C)O[C@@H](O[C@H]2CC[C@@]3(C)[C@H](CC[C@@H]4[C@@H]3CC[C@]3(C)[C@@H](C5=CC(=O)OC5)CC[C@]43O)C2)[C@@H]1O` [ODOROSIDE H], the GI50 in the experiment on SN12C was 0.00467 µM (active); in the experiment on HT-29, 0.00573 µM (active); with HOP-62 it was 0.00361 µM (active); in the experiment on M14 it was 0.0137 µM (active); in the experiment on HOP-92 it was 0.0127 µM (active); in the experiment on COLO 205 it was 0.0366 µM (active). For the same compound, the GI50 was < 0.0025 µM (active) in the experiment on NCI-H522; 0.00498 µM (active) in the experiment on IGROV-1; 0.00773 µM (active) with MCF7; 0.00766 µM in the experiment with HCT-15; 0.0048 µM (active) in the experiment on CAKI-1; 0.0111 µM (active) in the experiment on RPMI-8226. In addition, the GI50 in the experiment on T47D was 0.0333 µM (active); with SK-OV-3 it was 0.00964 µM (active); with SNB-75, 0.00601 µM (active); in the experiment on NCI-H460 it was 0.003 µM (active); with A498, 0.0787 µM (active); with RXF 393, 0.00394 µM (active). Moreover, the GI50 in the experiment on UO-31 was 0.00454 µM (active).

Turning to `OCCC/N=C1N=C(Cl)/C(=C\c2ccccc2)N\1`, the GI50 in the experiment on SN12C, in the experiment with HT-29, in the experiment on M14, in the experiment with HOP-92, with COLO 205 and with NCI-H522 was > 100 µM (inactive) throughout. Moreover, the GI50 was > 100 µM (inactive) with IGROV-1; > 100 µM (inactive) with MCF7; > 100 µM in the experiment on HCT-15; > 100 µM (inactive) with CAKI-1; > 100 µM (inactive) with K562; > 100 µM (inactive) with RPMI-8226. For the same compound, the GI50 in the experiment with T47D, with SK-OV-3, in the experiment with SNB-75, with A498, in the experiment on RXF 393 and in the experiment with UO-31 was > 100 µM (inactive) each time.

For the compound `Nc1ccc2ccc(-c3ccc[nH]3)nc2n1`, the GI50 with SN12C, with HOP-62, in the experiment with M14, in the experiment with HOP-92, in the experiment on COLO 205 and in the experiment with NCI-H522 was > 100 µM (inactive) in each case. In addition, the GI50 in the experiment on IGROV-1 is > 100 µM (inactive); in the experiment with MCF7, > 100 µM (inactive); in the experiment on HCT-15, > 100 µM; in the experiment with CAKI-1 it was > 100 µM (inactive); in the experiment with RPMI-8226 it was > 100 µM (inactive); in the experiment with T47D, > 100 µM (inactive). In addition, the GI50 in the experiment with SK-OV-3, in the experiment on SNB-75, with NCI-H460, with A498, with RXF 393 and in the experiment on UO-31 was > 100 µM (inactive) in each case.

In the case of `CN1CCN(Cn2nc(-c3ccccc3)n(/N=C/c3ccc(-c4ccc(Cl)cc4Cl)o3)c2=S)CC1`, the GI50 was 12.3 µM (inactive) in the experiment with HT-29; 11.4 µM (inactive) in the experiment with HOP-62; 10.8 µM (inactive) with M14; 8.95 µM (inactive) with HOP-92; 28.2 µM (inactive) in the experiment on NCI-H522; 8.97 µM (inactive) in the experiment on IGROV-1. In addition, the GI50 with MCF7 is 12.4 µM (inactive); in the experiment with HCT-15 it was 4.18 µM; with CAKI-1, 7.36 µM (inactive); in the experiment on K562, 2.39 µM (inactive); in the experiment on RPMI-8226, 8.61 µM (inactive); with T47D it was 15.5 µM (inactive). For the same compound, the GI50 in the experiment on SK-OV-3 is 13.5 µM (inactive); with NCI-H460 it was 5.61 µM (inactive); with A498, 26 µM (inactive); with RXF 393 it was 4.22 µM (inactive); in the experiment on UO-31 it was 14.8 µM (inactive).

Consider `CN1CC2=C(OC(N)=C(C#N)C2c2cccs2)/C(=C/c2cccs2)C1` (configuration not stated), for which the GI50 with SN12C was 34.8 µM (inactive); with HT-29 it was 12.7 µM (inactive); in the experiment on HOP-62, 19.3 µM (inactive); in the experiment on M14, 13.1 µM (inactive); in the experiment on HOP-92, 2.09 µM (inactive); with COLO 205, 9.08 µM (inactive). The GI50 with NCI-H522 was 7.94 µM (inactive); in the experiment on IGROV-1, 15.5 µM (inactive); in the experiment with MCF7 it was 0.223 µM (active); in the experiment on HCT-15 it was 15.5 µM; with CAKI-1, 38.8 µM (inactive); in the experiment with K562 it was 10.3 µM (inactive). Besides, the GI50 with RPMI-8226 was 4.45 µM (inactive); with T47D it was 0.202 µM (active); with SK-OV-3, 55.7 µM (inactive); in the experiment on NCI-H460 it was 17.7 µM (inactive); in the experiment on A498, 21.8 µM (inactive); with RXF 393 it was 10.1 µM (inactive). Also, the GI50 in the experiment on UO-31 was 34 µM (inactive).

In the case of `CN(C)c1ccc(-c2ccc(N(C)C)c3n[se]nc23)c2n[se]nc12`, the GI50 with SN12C, in the experiment on HT-29, in the experiment on HOP-62, in the experiment on HOP-92, with NCI-H522 and in the experiment with IGROV-1 was > 100 µM (inactive) in each case. For the same compound, the GI50 in the experiment on MCF7 is > 100 µM (inactive); with HCT-15, > 100 µM; in the experiment with CAKI-1 it was > 100 µM (inactive); in the experiment on K562 it was > 100 µM (inactive); in the experiment on RPMI-8226 it was > 100 µM (inactive); in the experiment on T47D it was > 100 µM (inactive). Also, the GI50 in the experiment with SK-OV-3, with SNB-75, in the experiment on NCI-H460, in the experiment on A498, in the experiment on RXF 393 and with UO-31 was > 100 µM (inactive) throughout.

In the case of `CCCCCCCCCCCCCCCCNc1nc(=O)n(C2OC(C)C(O)C2O)cc1F` (configuration not stated), the GI50 was 21.9 µM (inactive) in the experiment on SN12C; 17.2 µM (inactive) in the experiment with HT-29; 16.4 µM (inactive) in the experiment on HOP-62; 17.2 µM (inactive) with M14; 22.9 µM (inactive) in the experiment on HOP-92; 24.4 µM (inactive) in the experiment with COLO 205. Moreover, the GI50 was 18.7 µM (inactive) with NCI-H522; 17.6 µM (inactive) with IGROV-1; 17 µM (inactive) in the experiment with MCF7; 14.9 µM with HCT-15; 21.1 µM (inactive) in the experiment with CAKI-1; 10.6 µM (inactive) in the experiment with RPMI-8226. For the same compound, the GI50 with T47D was 21.1 µM (inactive); with SK-OV-3, 22.9 µM (inactive); with SNB-75, 18.5 µM (inactive); with NCI-H460, 17 µM (inactive); with A498, 19.5 µM (inactive); in the experiment with RXF 393, 20.7 µM (inactive). Besides, the GI50 in the experiment with UO-31 was 14 µM (inactive).

In the case of `CCN(CC)c1ccc(C2NC(=O)c3ccccc3N2)cc1` (configuration not stated), the GI50 with SN12C is 9.98 µM (inactive); in the experiment with HT-29, 2.31 µM (inactive); in the experiment on HOP-62, 5.7 µM (inactive); in the experiment on M14 it was 2.93 µM (inactive); in the experiment with HOP-92, 3.05 µM (inactive); with COLO 205, 1.63 µM (inactive). Besides, the GI50 with NCI-H522 was 14.8 µM (inactive); with IGROV-1 it was 5.24 µM (inactive); with MCF7, 3.73 µM (inactive); with HCT-15 it was 1.13 µM; with CAKI-1, 2.82 µM (inactive); in the experiment on K562 it was 1.27 µM (inactive). The GI50 with RPMI-8226 is 3.37 µM (inactive); with T47D, > 100 µM (inactive); with SK-OV-3, 3.74 µM (inactive); in the experiment with NCI-H460, 1.21 µM (inactive); in the experiment on A498 it was 4.95 µM (inactive); in the experiment on RXF 393, 7.52 µM (inactive). For the same compound, the GI50 in the experiment on UO-31 was > 24.5 µM (inactive).

Regarding `CCOC(=O)c1sc2c(c1OC(=O)c1ccccc1)c(=O)n(-c1ccccc1)c(=S)n2-c1ccccc1`, the GI50 in the experiment with SN12C is > 100 µM (inactive); in the experiment with HT-29 it was 19.2 µM (inactive); in the experiment with HOP-62, 22.9 µM (inactive); with M14, 19.9 µM (inactive); in the experiment on HOP-92, 25.7 µM (inactive); in the experiment with COLO 205 it was > 100 µM (inactive). The GI50 in the experiment with NCI-H522 is 23.6 µM (inactive); in the experiment with IGROV-1 it was 19.8 µM (inactive); in the experiment with MCF7, 29.4 µM (inactive); with HCT-15 it was 45.5 µM; in the experiment on CAKI-1 it was 97.9 µM (inactive); in the experiment with K562, 28.4 µM (inactive). Besides, the GI50 is 40.2 µM (inactive) in the experiment on RPMI-8226; 63.7 µM (inactive) in the experiment on T47D; 38.2 µM (inactive) in the experiment on SK-OV-3; 19.3 µM (inactive) in the experiment on NCI-H460; 15.5 µM (inactive) in the experiment with A498; 43.5 µM (inactive) in the experiment with RXF 393.

On to `COc1cccc(OC)c1NC(=O)C(=O)Nn1c(NNC(=O)c2ccncc2)nc2ccccc2c1=O`, for which the GI50 with SN12C, in the experiment on HT-29, in the experiment with HOP-62, in the experiment on M14, with HOP-92 and in the experiment with NCI-H522 was > 100 µM (inactive) in each case. The GI50 with IGROV-1 is > 100 µM (inactive); with MCF7, > 100 µM (inactive); with HCT-15 it was > 100 µM; in the experiment on CAKI-1, > 100 µM (inactive); in the experiment with K562, > 100 µM (inactive); in the experiment on RPMI-8226 it was > 100 µM (inactive). Also, the GI50 with T47D, in the experiment on SK-OV-3, in the experiment with SNB-75, in the experiment with NCI-H460, in the experiment on A498 and in the experiment with RXF 393 was > 100 µM (inactive) in each case. Also, the GI50 in the experiment with UO-31 was > 100 µM (inactive).

Turning to `CCC1CC(C)C(O)/C=C/C=C/CC(C)OC(=O)CC(O)C(OC)C1OC1OC(C)CC(O)(C(C)=O)C1O` (configuration not stated), the GI50 is 42.1 µM (inactive) in the experiment with SN12C; 59.4 µM (inactive) in the experiment on HT-29; 39.7 µM (inactive) in the experiment on HOP-62; 78.5 µM (inactive) in the experiment on M14; > 100 µM (inactive) in the experiment with HOP-92; 63.1 µM (inactive) with COLO 205. Also, the GI50 in the experiment on NCI-H522 was 13.3 µM (inactive); with IGROV-1, > 100 µM (inactive); in the experiment with MCF7, 40.3 µM (inactive); in the experiment on HCT-15, 23.9 µM; with CAKI-1 it was 13.1 µM (inactive); in the experiment on RPMI-8226, 48.8 µM (inactive). Also, the GI50 was 51.4 µM (inactive) in the experiment with T47D; > 100 µM (inactive) in the experiment on SK-OV-3; 15.5 µM (inactive) in the experiment with SNB-75; 77.4 µM (inactive) with A498; 44.7 µM (inactive) in the experiment with RXF 393; 47.3 µM (inactive) in the experiment on UO-31.
